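Compound exposure: 48 hours, 5 concentrations, 96-well plates. Here, GI50 denotes the concentration required for 50% inhibition of growth. The concentration for full growth arrest is given as TGI.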
Columns and labels:
Assay in all cases: growth of human tumour cells (NCI), 48 h
786-0 renal = system: 786-0 renal
A498 renal = system: A498 renal
A549 NSCLC = system: A549 NSCLC
ACHN renal = system: ACHN renal
BT-549 breast = system: BT-549 breast
CAKI-1 renal = system: CAKI-1 renal
CCRF-CEM leukemia = system: CCRF-CEM leukemia
COLO 205 colon = system: COLO 205 colon
DU-145 prostate = system: DU-145 prostate
EKVX NSCLC = system: EKVX NSCLC
HCC-2998 colon = system: HCC-2998 colon
HCT-116 colon = system: HCT-116 colon
HCT-15 colon = system: HCT-15 colon
HL-60(TB) leukemia = system: HL-60(TB) leukemia
HOP-62 NSCLC = system: HOP-62 NSCLC
HOP-92 NSCLC = system: HOP-92 NSCLC
HS 578T breast = system: HS 578T breast
HT29 colon = system: HT29 colon
IGROV1 ovarian = system: IGROV1 ovarian
K-562 leukemia = system: K-562 leukemia
KM12 colon = system: KM12 colon
LOX IMVI melanoma = system: LOX IMVI melanoma
M14 melanoma = system: M14 melanoma
MALME-3M melanoma = system: MALME-3M melanoma
MCF7 breast = system: MCF7 breast
MDA-MB-231 breast = system: MDA-MB-231 breast
MDA-MB-435 = system: MDA-MB-435
MOLT-4 leukemia = system: MOLT-4 leukemia
NCI-H226 lung = system: NCI-H226 lung
NCI-H23 lung = system: NCI-H23 lung
NCI-H460 lung = system: NCI-H460 lung
NCI-H522 lung = system: NCI-H522 lung
NCI/ADR-RES ovarian = system: NCI/ADR-RES ovarian
OVCAR-3 ovarian = system: OVCAR-3 ovarian
OVCAR-4 ovarian = system: OVCAR-4 ovarian
OVCAR-5 ovarian = system: OVCAR-5 ovarian
OVCAR-8 ovarian = system: OVCAR-8 ovarian
PC-3 prostate = system: PC-3 prostate
RPMI-8226 leukemia = system: RPMI-8226 leukemia
RXF 393 renal = system: RXF 393 renal
SF-268 CNS = system: SF-268 CNS
SF-295 CNS = system: SF-295 CNS
SF-539 CNS = system: SF-539 CNS
SK-MEL-2 melanoma = system: SK-MEL-2 melanoma
SK-MEL-28 melanoma = system: SK-MEL-28 melanoma
SK-MEL-5 melanoma = system: SK-MEL-5 melanoma
SK-OV-3 ovarian = system: SK-OV-3 ovarian
SN12C renal = system: SN12C renal
SNB-19 CNS = system: SNB-19 CNS
SNB-75 CNS = system: SNB-75 CNS
SR leukemia = system: SR leukemia
SW-620 colon = system: SW-620 colon
T-47D breast = system: T-47D breast
TK-10 renal = system: TK-10 renal
U251 CNS = system: U251 CNS
UACC-257 melanoma = system: UACC-257 melanoma
UACC-62 melanoma = system: UACC-62 melanoma
UO-31 renal = system: UO-31 renal

For `CC1(C)N=C(N)N=C(N)N1c1ccc(OCC(=O)Nc2ccccc2)c(Cl)c1`, the GI50 (786-0 renal) was 11.1 µM, the TGI (786-0 renal) was > 100 µM and the GI50 (A498 renal) was > 58.1 µM. For the same compound, the TGI (A498 renal) was > 100 µM, the GI50 (A549 NSCLC) was 0.0916 µM and the TGI (A549 NSCLC) was > 71.8 µM. The GI50 (ACHN renal) was 62.9 µM, the TGI (ACHN renal) was > 100 µM and the GI50 (BT-549 breast) was 22.3 µM. For the same compound, the TGI (BT-549 breast) was > 100 µM, the GI50 (CAKI-1 renal) was > 85.9 µM and the TGI (CAKI-1 renal) was > 100 µM. The GI50 (CCRF-CEM leukemia) was 2.17 µM, the TGI (CCRF-CEM leukemia) was > 100 µM and the GI50 (COLO 205 colon) was 18.3 µM. For the same compound, the TGI (COLO 205 colon) was > 100 µM, the GI50 (DU-145 prostate) was 1.15 µM and the TGI (DU-145 prostate) was > 100 µM. For the same compound, the GI50 (EKVX NSCLC) was 35 µM, the TGI (EKVX NSCLC) was > 100 µM and the GI50 (HCC-2998 colon) was 4.99 µM. For the same compound, the TGI (HCC-2998 colon) was > 100 µM, the GI50 (HCT-116 colon) was 0.502 µM and the TGI (HCT-116 colon) was > 100 µM. For the same compound, the GI50 (HCT-15 colon) was 72.3 µM, the TGI (HCT-15 colon) was > 100 µM and the GI50 (HL-60(TB) leukemia) was 0.922 µM. For the same compound, the TGI (HL-60(TB) leukemia) was > 100 µM, the GI50 (HOP-62 NSCLC) was 5.77 µM and the TGI (HOP-62 NSCLC) was > 100 µM. The GI50 (HOP-92 NSCLC) was 68.9 µM, the TGI (HOP-92 NSCLC) was > 100 µM and the GI50 (HS 578T breast) was > 100 µM. For the same compound, the TGI (HS 578T breast) was > 100 µM, the GI50 (HT29 colon) was 0.333 µM and the TGI (HT29 colon) was > 100 µM. The GI50 (IGROV1 ovarian) was 0.688 µM, the TGI (IGROV1 ovarian) was > 100 µM and the GI50 (K-562 leukemia) was 0.446 µM. The TGI (K-562 leukemia) was > 100 µM, the GI50 (KM12 colon) was 0.842 µM and the TGI (KM12 colon) was > 100 µM. The GI50 (LOX IMVI melanoma) was 0.589 µM, the TGI (LOX IMVI melanoma) was > 100 µM and the GI50 (M14 melanoma) was 13.8 µM. For the same compound, the TGI (M14 melanoma) was > 100 µM, the GI50 (MALME-3M melanoma) was > 71.4 µM and the TGI (MALME-3M melanoma) was > 100 µM. For the same compound, the GI50 (MCF7 breast) was 0.886 µM, the TGI (MCF7 breast) was > 100 µM and the GI50 (MDA-MB-231 breast) was > 100 µM. For the same compound, the TGI (MDA-MB-231 breast) was > 100 µM, the GI50 (MDA-MB-435) was 0.522 µM and the TGI (MDA-MB-435) was > 100 µM. The GI50 (MOLT-4 leukemia) was 1.19 µM, the TGI (MOLT-4 leukemia) was > 59.6 µM and the GI50 (NCI-H226 lung) was > 71.6 µM. For the same compound, the TGI (NCI-H226 lung) was > 100 µM, the GI50 (NCI-H23 lung) was 2.96 µM and the TGI (NCI-H23 lung) was > 100 µM. For the same compound, the GI50 (NCI-H460 lung) was 0.0748 µM, the TGI (NCI-H460 lung) was > 100 µM and the GI50 (NCI-H522 lung) was 3.01 µM. The TGI (NCI-H522 lung) was > 100 µM, the GI50 (NCI/ADR-RES ovarian) was > 100 µM and the TGI (NCI/ADR-RES ovarian) was > 100 µM. For the same compound, the GI50 (OVCAR-3 ovarian) was 8.51 µM, the TGI (OVCAR-3 ovarian) was > 100 µM and the GI50 (OVCAR-4 ovarian) was 15.8 µM. The TGI (OVCAR-4 ovarian) was > 100 µM, the GI50 (OVCAR-5 ovarian) was > 100 µM and the TGI (OVCAR-5 ovarian) was > 100 µM. For the same compound, the GI50 (OVCAR-8 ovarian) was 6.69 µM, the TGI (OVCAR-8 ovarian) was > 100 µM and the GI50 (PC-3 prostate) was 0.123 µM. For the same compound, the TGI (PC-3 prostate) was > 66.5 µM, the GI50 (RPMI-8226 leukemia) was 9.89 µM and the TGI (RPMI-8226 leukemia) was > 100 µM. The GI50 (RXF 393 renal) was > 87.1 µM, the TGI (RXF 393 renal) was > 100 µM and the GI50 (SF-268 CNS) was 0.677 µM. For the same compound, the TGI (SF-268 CNS) was > 100 µM, the GI50 (SF-295 CNS) was 0.702 µM and the TGI (SF-295 CNS) was > 100 µM. The GI50 (SF-539 CNS) was 2.1 µM, the TGI (SF-539 CNS) was > 100 µM and the GI50 (SK-MEL-2 melanoma) was > 93.9 µM. The TGI (SK-MEL-2 melanoma) was > 100 µM, the GI50 (SK-MEL-28 melanoma) was > 58.8 µM and the TGI (SK-MEL-28 melanoma) was > 100 µM. For the same compound, the GI50 (SK-MEL-5 melanoma) was 1.08 µM, the TGI (SK-MEL-5 melanoma) was > 100 µM and the GI50 (SK-OV-3 ovarian) was > 60.9 µM. For the same compound, the TGI (SK-OV-3 ovarian) was > 100 µM, the GI50 (SN12C renal) was 0.647 µM and the TGI (SN12C renal) was > 100 µM. For the same compound, the GI50 (SNB-19 CNS) was 28.8 µM, the TGI (SNB-19 CNS) was > 100 µM and the GI50 (SNB-75 CNS) was > 100 µM. The TGI (SNB-75 CNS) was > 100 µM, the GI50 (SR leukemia) was 0.515 µM and the TGI (SR leukemia) was > 51.6 µM. For the same compound, the GI50 (SW-620 colon) was 0.456 µM, the TGI (SW-620 colon) was > 100 µM and the GI50 (T-47D breast) was > 65.8 µM. For the same compound, the TGI (T-47D breast) was > 100 µM, the GI50 (TK-10 renal) was 32.4 µM and the TGI (TK-10 renal) was > 100 µM. For the same compound, the GI50 (U251 CNS) was 0.674 µM, the TGI (U251 CNS) was > 100 µM and the GI50 (UACC-257 melanoma) was > 25.4 µM. For the same compound, the TGI (UACC-257 melanoma) was > 100 µM, the GI50 (UACC-62 melanoma) was 0.569 µM and the TGI (UACC-62 melanoma) was > 100 µM. The GI50 (UO-31 renal) was > 100 µM and the TGI (UO-31 renal) was > 100 µM.

Source: PubChem BioAssay (NCI)
